Laboratory results published in patent US20090123907A1 (priority 2004, published 2009).

Legend:
[1] = test system: plasma proteins; assay: Protein resistance to vortexing; settings: for Alk. Phos / LDH / SGOT / SGPT / fIX / fV / fVIII / fibrinogen: plasma, Na citrate 0.4%, lysine citrate 2.0%
Method: As the basic anticoagulant experiments were carried out, additional advantages to the new anticoagulation system became apparent. The inventor has long believed that the effects of citrate on proteins, and in particular plasma proteins, goes beyond mere chelation of calcium. As mentioned above, citrate complexes with or otherwise potentiates the precipitation of plasma proteins. […] Soluble protein can be denatured by vigorous mixing and the resulting exposure to the air-water interfaces present in foam. […]. Two ten ml tubes of each plasma were prepared and held at room temperature for thirty minutes. A “pretreatment” sample (Pre) was removed from each tube and set aside. Then the tubes were subjected to vigorous mixing using a vortex (rotary) mixer for 30 min.
[…]. […] […].

[2] = test system: plasma proteins; assay: Protein resistance to glass beads; settings: Na citrate 0.4%, lysine citrate 2.0%
Description: The above experiment was repeated using glass beads as a denaturing agent. Generally, contact of blood plasma with glass surfaces results in activation or denaturation. […].

[3] = test system: plasma proteins; assay: Protein resistance to room temperature aging; settings: Na citrate 0.4%, lysine citrate 2%
Description: (§1) […]. In many cases heat treatments have been used to reduce or eliminated infectious agents from blood products. A problem with such an approach has been heat induced changes in the antigenicity of certain blood components. […]. A continuation of this experiment was set up to check also long term room temperature stability. It is generally believed that resistance to heat is an indicator of room temperature stability. That is the justification for estimating long term stability of products by using “accelerated” stability tests based on storage at an elevated temperature. In the presented experiment it is important to note that different plasma sample were used for the two different anticoagulants because a single sample was not large enough to provide sufficient volume for all of the tests over the life of the extended experiment.
It was anticipated that protection against damage due to elevated temperature would also provide greater stability at room temperature. It will be appreciated that the need to rapidly freeze plasma to ensure stability and the need to freeze or refrigerate plasma for transport greatly complicates the use of plasma under situations of war or emergency or in developing countries where refrigeration may not be readily available. […] […]. […] […]. Although great effort is taken to ensure sterility of the plasma, any blood product procured by means of venipuncture may become contaminated by skin bacteria. […] […]. Those proteins that do lose activity decrease only slightly as compared to much more dramatic decreases in sodium citrate storage.

[4] = test system: plasma proteins; assay: Protein resistance to 56° C. treatment; settings: Na citrate 0.4%, lysine citrate 2.0%
Description: as §1

[5] = test system: clot formation; assay: Clotting times (PT, PTT) of anticoagulated whole blood; assay type: biochemical
Method: In this experiment whole blood (an aliquot of which clotted within 10 minutes without anticoagulant) was modified by adding a number of different anticoagulant compositions. Sodium citrate was used as an anticoagulant at 0.65%, 0.75% and 0.9% by weight. These are all higher citrate levels than the usual 0.4% by weight. Amino acid citrates (lysine or arginine) were used at 0.65%, 0.75% and 0.9% by weight based on the weight of the citric acid. The amino acid counterion was used in sufficient quantity to adjust the pH as explained above.

[6] = after vortexing, sodium citrate 0.4%, lysine citrate 2%
[7] = Post 30 min rocking with glass beads
[8] = Post 56° C. for five minutes, plasma

NCCCC[C@H](N)C(=O)O.O=C(O)CC(O)(CC(=O)O)C(=O)O [Lysine Citrate, lysine citrate]
Alk. Phos ([1]; Post 30 min vortexing): 22 IU/.L | LDH ([1]; Post 30 min vortexing): 80 IU/L | SGOT ([1]; Post 30 min vortexing): 11 IU/L | SGPT ([1]; Post 30 min vortexing): 24 IU/L | fIX ([1]; Post 30 min vortexing): 76% | fV ([1]; Post 30 min vortexing): 55% | fVIII ([1]; Post 30 min vortexing): 57% | fibrinogen ([1]; Post 30 min vortexing): 198 mg/dL | Alk. Phos ([1]; Pre vortexing): 25 IU/.L | LDH ([1]; Pre vortexing): 99 IU/L | SGOT ([1]; Pre vortexing): 12 IU/L | SGPT ([1]; Pre vortexing): 26 IU/L | fIX ([1]; Pre vortexing): 98% | fV ([1]; Pre vortexing): 95% | fVIII ([1]; Pre vortexing): 97% | fibrinogen ([1]; Pre vortexing): 247 mg/dL | Alkaline phosphatase, % of its initial value [1, 6]: 88% | LDH, % of initial value [1, 6]: 80% | SGOT, % of initial value [1, 6]: 91.6% | SGPT, % of initial value [1, 6]: 92% | factor IX, % of initial value [1, 6]: 77.6% | factor V, % of initial value [1, 6]: 58% | factor VIII, % of initial value [1, 6]: 59% | fibrinogen, % of initial value [1, 6]: 80% | Alk. Phos [2, 7]: 24 IU/.L | LDH [2, 7]: 96 IU/L | SGOT [2, 7]: 12 IU/L | SGPT [2, 7]: 24 IU/L | fIX [2, 7]: 84% | fV [2, 7]: 67% | fVIII [2, 7]: 62% | fibrinogen [2, 7]: 202 mg/dL | Alk. Phos ([2]; Pre glass beads): 25 IU/.L | LDH ([2]; Pre glass beads): 99 IU/L | SGOT ([2]; Pre glass beads): 12 IU/L | SGPT ([2]; Pre glass beads): 26 IU/L | fIX ([2]; Pre glass beads): 98% | fV ([2]; Pre glass beads): 95% | fVIII ([2]; Pre glass beads): 97% | fibrinogen ([2]; Pre glass beads): 247 mg/dL | Alk. Phos ([3]; 0 days at room temperature): 23 IU/.L | LDH ([3]; 0 days at room temperature): 97 IU/L | SGOT ([3]; 0 days at room temperature): 10 IU/L | SGPT ([3]; 0 days at room temperature): 20 IU/L | fIX ([3]; 0 days at room temperature): 99% | fV ([3]; 0 days at room temperature): 97% | fVIII ([3]; 0 days at room temperature): 102% | fibrinogen ([3]; 0 days at room temperature): 198 mg/dL | Alk. Phos ([3]; 7 days at room temperature): 23 IU/.L | LDH ([3]; 7 days at room temperature): 97 IU/L | SGOT ([3]; 7 days at room temperature): 10 IU/L | SGPT ([3]; 7 days at room temperature): 20 IU/L | fIX ([3]; 7 days at room temperature): 100% | fV ([3]; 7 days at room temperature): 95% | fVIII ([3]; 7 days at room temperature): 100% | fibrinogen ([3]; 7 days at room temperature): 198 mg/dL | Alk. Phos ([3]; 14 days at room temperature): 22 IU/.L | LDH ([3]; 14 days at room temperature): 98 IU/L | SGOT ([3]; 14 days at room temperature): 11 IU/L | SGPT ([3]; 14 days at room temperature): 20 IU/L | fIX ([3]; 14 days at room temperature): 95% | fV ([3]; 14 days at room temperature): 92% | fVIII ([3]; 14 days at room temperature): 97% | fibrinogen ([3]; 14 days at room temperature): 196 mg/dL | Alk. Phos ([3]; 21 days at room temperature): 23 IU/.L | LDH ([3]; 21 days at room temperature): 98 IU/L | SGOT ([3]; 21 days at room temperature): 10 IU/L | SGPT ([3]; 21 days at room temperature): 18 IU/L | fIX ([3]; 21 days at room temperature): 89% | fV ([3]; 21 days at room temperature): 88% | fVIII ([3]; 21 days at room temperature): 96% | fibrinogen ([3]; 21 days at room temperature): 196 mg/dL | Alk. Phos [4, 8]: 16 IU/.L | LDH [4, 8]: 91 IU/L | SGOT [4, 8]: 7 IU/L | SGPT [4, 8]: 17 IU/L | fIX [4, 8]: 79% | fV [4, 8]: 69% | fVIII [4, 8]: 88% | fibrinogen [4, 8]: 147 mg/dL | Alk. Phos ([4]; before heating, fresh plasma): 23 IU/.L | LDH ([4]; before heating, fresh plasma): 97 IU/L | SGOT ([4]; before heating, fresh plasma): 10 IU/L | SGPT ([4]; before heating, fresh plasma): 20 IU/L | fIX ([4]; before heating, fresh plasma): 99% | fV ([4]; before heating, fresh plasma): 97% | fVIII ([4]; before heating, fresh plasma): 102% | fibrinogen ([4]; before heating, fresh plasma): 198 mg/dL | PT (4 hrs at RT) ([5]; anticoagulant 0.65 wgt %): 14.1 s | PTT (4 hrs at RT) ([5]; anticoagulant 0.65 wgt %): 33.8 s | PT (4 hrs at RT) ([5]; anticoagulant 0.75 wgt %): 16.6 s | PTT (4 hrs at RT) ([5]; anticoagulant 0.75 wgt %): 33.2 s | PT (4 hrs at RT) ([5]; anticoagulant 0.90 wgt %): 36.5 s | PTT (4 hrs at RT) ([5]; anticoagulant 0.90 wgt %): 44.4 s
